These results are taken from patent US7232912B2, “Indazole compounds, pharmaceutical compositions, and methods for mediating or inhibiting cell proliferation” (Agouron Pharmaceuticals, Inc., priority 2000, dated 2007).

One test has as its target T1, CDK2/cyclin A (Homo sapiens, UniProt P24941).
T1 construct: made in house; host or cells: CDK2: insect cells (baculovirus); cyclin A: E. coli
The test can be described thus: Inhibition of CDK2/Cyclin A Retinoblastoma Kinase Activity. Format: biochemical. To be noted: for Ki: apparent Ki; for inhibition at 10 µM: read-out: CDK2/A % inhibition at 10 μM. The protocol:
(§1) Cyclin-dependent kinase activity was measured by quantifying the enzyme-catalyzed, time-dependent incorporation of radioactive phosphate from [^32P]ATP or [^33P]ATP into a protein substrate. Unless noted otherwise, assays were performed in 96-well plates in a total volume of 50 μL, in the presence of 10 mM HEPES (N-[2-hydroxyethyl]piperazine-N′-[2-ethanesulfonic acid]) (pH 7.4), 10 mM MgCl2, 25 μM adenosine triphosphate (ATP), 1 mg/mL ovalbumin, 5 μg/mL leupeptin, 1 mM dithiothreitol, 10 mM beta-glycerophosphate, 0.1 mM sodium vanadate, 1 mM sodium fluoride, 2.5 mM ethylene glycol-bis(β-aminoethyl ethKer)-N,N,N′N′-tetraacetic acid (EGTA), 2% (v/v) dimethylsulfoxide, and 0.03–0.4 μCi [^32/33P]ATP per reaction. Reactions were initiated with appropriate enzyme, incubated at 30° C., and terminated after 20 minutes by the addition of ethylenediaminetetraacetic acid (EDTA) to 250 mM. The phosphorylated substrate was then captured on a nitrocellulose or phosphocellulose membrane using a 96-well filtration manifold, and unincorporated radioactivity was removed by repeated washing with 0.85% phosphoric acid. Radioactivity was quantified by exposing the dried membranes to a phosphorimager.
(§2) Apparent Ki values were measured by assaying enzyme activity in the presence of different inhibitor compound concentrations and subtracting the background radioactivity measured in the absence of enzyme. Inhibition data were fit to an equation for competitive inhibition using Kaleidagraph (Synergy Software), or were fit to an equation for competitive tight-binding inhibition using the software KineTic (BioKin, Ltd.).
Inhibition of CDK2/Cyclin A Retinoblastoma Kinase Activity
CDK2 was purified using published methodology (Rosenblatt et al., “Purification and Crystallization of Human Cyclin-dependent Kinase 2,” J. Mol. Biol., vol. 230, 1993, pp. 1317–1319) from insect cells that had been infected with a baculovirus expression vector. […] A complex of CDK2 and proteolyzed cyclin A was prepared and purified by gel filtration. The substrate for this assay was the same Rb substrate fragment used for the CDK4 assays, and the methodology of the CDK2/cyclin A and the CDK4/cyclin D3 assays was essentially the same, except that CDK2 was present at 150 nM or 5 nM. Ki values were measured as described above.

For the next test, the target named is CDK4/cyclin D3 (Homo sapiens, UniProt P11802). As to the kind of experiment: Inhibition of CDK4/Cyclin D Retinoblastoma Kinase Activity. Format: biochemical. To be noted: for Ki: apparent Ki; for inhibition at 10 µM: read-out: CDK4/D % inhibition at 10 μM. The protocol:
as §1, §2
Inhibition of CDK4/Cyclin D Retinoblastoma Kinase Activity
A complex of human CDK4 and cyclin D3, or a complex of human CDK4 and genetically truncated (1–264) cyclin D3, was purified using traditional biochemical chromatographic techniques from insect cells that had been co-infected with the corresponding baculovirus expression vectors (see e.g., Meijer and Kim, “Chemical Inhibitors of Cyclin-Dependent Kinases,” Methods in Enzymol,. vol. 283 (1997), pp. 113–128.). The enzyme complex (5 or 50 nM) was assayed with 0.3–0.5 μg of purified recombinant retinoblastoma protein fragment (Rb) as a substrate. The engineered Rb fragment (residues 386–928 of the native retinoblastoma protein; 62.3 kDa) contains the majority of the phosphorylation sites found in the native 106-kDa protein, as well as a tag of six histidine residues for ease of purification. Phosphorylated Rb substrate was captured by microfiltration on a nitrocellulose membrane and quantified using a phosphorimager as described above. For measurement of tight-binding inhibitors, the enzyme complex concentration was lowered to 5 nM, and the assay duration was extended to 60 minutes, during which the time-dependence of product formation was linear.

The test system of another test is HCT 116 cell line. As to the kind of experiment: Inhibition of Cell Growth (MTT tetrazolium salt assay). To be noted: Homo sapiens. Format: cell-based. The protocol:
Inhibition of Cell Growth: Assessment of Cytotoxicity
Inhibition of cell growth was measured using the tetrazolium salt assay, which is based on the ability of viable cells to reduce 3-(4,5-dimethylthiazol-2-yl)-2,5-[2H]-diphenyltetrazolium bromide (MTT) to formazan (Mossman, Journal of Immunological Methods, vol. 65 (1983), pp. 55–58). The water-insoluble purple formazan product was then detected spectrophotometrically. The HCT 116 cell line was grown in 96-well plates. Cells were plated in the appropriate medium at a volume of 135 μl/well in McCoy's 5A Medium. Plates were incubated for four hours before addition of inhibitor compounds. Different concentrations of inhibitor compounds were added in 0.5% (v/v) dimethylsulfoxide (15 μL/well), and cells were incubated at 37° C. (5% CO2) for four to six days (depending on cell type). At the end of the incubation, MTT was added to a final concentration of 0.2 mg/mL, and cells were incubated for 4 hours more at 37° C. After centrifugation of the plates and removal of medium, the absorbance of the formazan (solubilized in dimethylsulfoxide) was measured at 540 nm. The concentration of inhibitor compound causing 50% inhibition of growth was determined from the linear portion of a semi-log plot of inhibitor concentration versus percentage inhibition. All results were compared to control cells treated only with 0.5% (v/v) dimethylsulfoxide.
(In general: Formazan colour is commonly taken as a measure of viable cells.)

Where [1] appears, read: HCT 116, MTT, 50% inhibition of growth, read-out: HCT 116 IC50.
Setting [2] is: HCT 116, MTT, IC90, read-out: HCT 116 IC90.

The term IC50 denotes the concentration that inhibits the measured activity by half. For orientation: IC90 means the concentration at which the effect reaches the 90% level.

Like-named read-outs stand apart in the source and are kept apart here.

CDK4/cyclin D3, sequence (P11802 2-303 limits assumed): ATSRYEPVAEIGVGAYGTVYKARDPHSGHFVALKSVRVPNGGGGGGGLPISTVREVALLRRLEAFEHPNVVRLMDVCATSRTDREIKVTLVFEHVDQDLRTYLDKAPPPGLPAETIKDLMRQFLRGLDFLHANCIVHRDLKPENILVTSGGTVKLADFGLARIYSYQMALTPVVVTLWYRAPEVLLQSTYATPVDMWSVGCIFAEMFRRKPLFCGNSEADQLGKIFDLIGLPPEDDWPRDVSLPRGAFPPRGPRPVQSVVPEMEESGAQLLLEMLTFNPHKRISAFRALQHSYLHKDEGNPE
CDK4/cyclin D3, sequence (P30281 1-264 limits assumed, further chain): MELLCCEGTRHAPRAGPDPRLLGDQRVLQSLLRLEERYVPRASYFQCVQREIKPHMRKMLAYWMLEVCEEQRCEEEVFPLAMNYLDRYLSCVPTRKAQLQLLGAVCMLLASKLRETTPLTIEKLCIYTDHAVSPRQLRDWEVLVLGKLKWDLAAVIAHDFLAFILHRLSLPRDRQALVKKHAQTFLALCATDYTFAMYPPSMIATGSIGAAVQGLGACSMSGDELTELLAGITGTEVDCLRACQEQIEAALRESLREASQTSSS

Regarding `Oc1ccc(-c2ccc3[nH]nc(-c4nc5ccccc5[nH]4)c3c2)cc1` [8′, 4-[3-(1H-Benzoimidazol-2-yl)-1H-indazol-5-yl]-phenol], the Ki at CDK2/cyclin A was 370 nM; on CDK4/cyclin D3, 590 nM.
`O=[N+]([O-])c1ccc2[nH]nc(-c3ccc[nH]3)c2c1` [18b′, 5-Nitro-3-(2-Pyrrolyl)-1H-indazole]: the Ki at CDK2/cyclin A was 3300 nM; at CDK4/cyclin D3, 6600 nM.
Turning to `C(=C\c1ccc2[nH]nc(/C=C/c3ccccc3)c2c1)/c1ccccc1` [Example 2, 3,5-Distyryl-1H-Indazole], the Ki at CDK4/cyclin D3 is 7900 nM.
Regarding `COc1ccc(-c2ccc3[nH]nc(-c4nc5ccccc5[nH]4)c3c2)cc1` [Example 7′, 3-(1H-Benzoimidazol-2-yl)-5-(4-methoxyphenyl)-1H-indazole], the Ki on CDK2/cyclin A was 790 nM; at CDK4/cyclin D3, 1200 nM.
For `COc1cccc(-c2ccc3[nH]nc(-c4nc5ccccc5[nH]4)c3c2)c1C` [Example 9′, 3-(1H-Benzoimidazol-2-yl)-5-(3-methoxy-2-methyl-phenyl)-1H-indazole], in that order: 670 nM and 2200 nM.
As to `Cc1ccccc1-c1ccc2[nH]nc(-c3ccccc3)c2c1` [Example 11, 5-(2-Methylphenyl)-3-phenyl-1H-indazole], the Ki on CDK2/cyclin A was 2600 nM. Besides, the inhibition at 10 µM at CDK4/cyclin D3 stood at 39%.
For the compound `FC(F)(F)c1ccccc1-c1ccc2[nH]nc(-c3ccccc3)c2c1` [Example 12, 3-Phenyl-5-[2-(trifluormethyl)phenyl]-1H-indazole], the Ki on CDK2/cyclin A worked out at 6300 nM. The “CDK4/D % inhibition at 5 μM” value on CDK4/cyclin D3 (at 5 μM) is reported as 19%.
As for `Cc1cc(O)ccc1-c1ccc2[nH]nc(-c3ccccc3)c2c1` [Example 13, 5-(4-Hydroxy-2-methylphenyl)-3-phenyl-1H-indazole], the values for the Ki on CDK2/cyclin A and on CDK4/cyclin D3 were 2700 nM and 3400 nM, respectively.
For `c1ccc(-c2n[nH]c3ccc(-c4ccncc4)cc23)cc1` [Example 14, 3-Phenyl-5-(Pyrid-4-yl)-1H-indazole], in that order: 2500 nM and 2400 nM.
`c1ccc(-c2n[nH]c3ccc(-c4cccnc4)cc23)cc1` [Example 14b, 3-Phenyl-5-(pyrid-3-yl)-1H-indazole]: the inhibition at 1 µM on CDK4/cyclin D3 (read-out: CDK4/D % inhibition at 1 μM) came to 20%.
In the case of `c1c[nH]c(-c2n[nH]c3ccc(-c4ccncc4)cc23)c1` [Example 18, 5-(4Pyridyl)-3-(2-Pyrrolyl)-1H-indazole], on CDK4/cyclin D3, the Ki turned out to be 960 nM.
For `Cc1c(-c2ccc3[nH]nc(-c4nc5ccccc5[nH]4)c3c2)ccc(CCCO)c1O` [Example 26, 3-[3-(1H-Benzoimidazol-2-yl)-1H-indazol-5-yl]-6-(3-hydroxy-propyl)-2-methyl-phenol], the figures for the Ki on CDK2/cyclin A and at CDK4/cyclin D3 were 72 nM and 83 nM, respectively. Also, the half-maximal inhibitory concentration (IC50) with HCT 116 cell line (setting [1]) was found to be 2.8 µM. The 90% effect concentration (IC90) in the test with HCT 116 cell line (setting [2]) was determined as 5 µM.
The matching figures for `CC(C)(C)NCc1cccc2[nH]c(-c3n[nH]c4ccc(-c5cncc6ccccc56)cc34)nc12` [Example 39, tert-Butyl-[2-(5-isoquinolin-4-yl-1H-indazol-3-yl)-1H-benzoimidazol-4-ylmethyl]-amine]: 1.1 nM, 9 nM, 0.018 µM and 0.06 µM.
On to `c1ccc2c(-c3ccc4[nH]nc(-c5nc6c(Cn7ccnc7)cccc6[nH]5)c4c3)cncc2c1` [Example 40, 4-[3-(4-Imidazol-1-ylmethyl-1H-benzoimidazol-2-yl)-1H-indazol-5-yl]-isoquinoline], for which the Ki was found to be 0.38 nM on CDK2/cyclin A and 2.2 nM on CDK4/cyclin D3.
On to `Cc1cnccc1-c1ccc2[nH]nc(/C=C/c3ccccc3)c2c1` [Example 41, 5-(3-Methyl-pyridin-4-yl)-3-(E)-styryl-1H-indazole], for which the figures for the Ki at CDK2/cyclin A and at CDK4/cyclin D3 were 250 nM and 78 nM, respectively.
Consider `Oc1cc(F)cc(F)c1-c1ccc2[nH]nc(-c3nc4ccccc4[nH]3)c2c1` [Example 51], for which the results for the Ki at CDK2/cyclin A and at CDK4/cyclin D3 were 400 nM and 1100 nM, respectively.
Turning to `CC(=O)Nc1cccc2c(-c3ccc4[nH]nc(-c5nc6ccccc6[nH]5)c4c3)cncc12` [Example 56, N-{4-[3-(1H-Benzoimidazol-2-yl)1H-indazol-5-yl]-isoquinolin-8-yl}-acetamide], the Ki at CDK2/cyclin A was 1 nM; on CDK4/cyclin D3, 36 nM. Further, the IC50 with HCT 116 cell line (setting [1]) was determined as 0.48 µM. In addition, in the test on HCT 116 cell line (setting [2]), the IC90 was 1.3 µM.
On to `c1ccc(CNc2cccc3c(-c4ccc5[nH]nc(-c6nc7ccccc7[nH]6)c5c4)cncc23)cc1` [Example 57], for which the Ki at CDK2/cyclin A was determined as 37 nM; at CDK4/cyclin D3 it was 650 nM. For the same compound, in the test on HCT 116 cell line (HCT-116, read-out: HCT 116 IC50 (uM)), the IC50 came out at 2 µM. The IC90 in the test on HCT 116 cell line (HCT-116, read-out: HCT 116 IC90 (uM)) is 5 µM.
Turning to `Cc1c(-c2ccc3[nH]nc(-c4nc5ccccc5[nH]4)c3c2)cncc1-c1ccccn1` [Example 62], the Ki at CDK2/cyclin A amounted to 3.7 nM; at CDK4/cyclin D3, 50 nM. Moreover, in the test with HCT 116 cell line (setting [1]), the IC50 stood at 1 µM. Besides, the IC90 in the test with HCT 116 cell line (setting [2]) came out at 2.4 µM.
With `CCNCc1cncc(-c2ccc3[nH]nc(-c4nc5c(C(=O)NC)cccc5[nH]4)c3c2)c1C` [Example 80, 2-[5-(5-Ethylaminomethyl-4-methyl-pyridin-3-yl)-1H-indazol-3-yl]-1H benzoimidazole-4carboxylic acid methylamide], the IC90 with HCT 116 cell line (setting [2]) was determined as 0.22 µM. For the same compound, on CDK4/cyclin D3, the Ki amounted to 14 nM.
In the case of `CCNCc1cncc(-c2ccc3[nH]nc(-c4nc5c(NC(C)=O)cccc5[nH]4)c3c2)c1C` [Example 82, N-2-[5-(5-Ethylaminomethyl-4-methyl-pyridin-3-yl)-1H-indazol-3-yl-1 benzoimidazol-4-yl]-acetamide], the concentration for an effect of 90% (IC90) in the test on HCT 116 cell line (setting [2]) is more than 0.5 µM. Also, the Ki on CDK4/cyclin D3 is 110 nM.
Turning to `Fc1cccc(F)c1-c1ccc2[nH]nc(-c3ccccc3)c2c1` [Example 83, 5-(2,6-Difluorophenyl)-3-Phenyl-1H-indazole], the inhibition at 10 µM on CDK2/cyclin A and on CDK4/cyclin D3 was 30% throughout.
For `c1ccc(CNc2ccc3[nH]nc(-c4ccc[nH]4)c3c2)cc1` [Example 85, 5-(Benzylamino)-3-(2-Pyrrolyl)-1H-indazole], the figures for the Ki on CDK2/cyclin A and at CDK4/cyclin D3 were 6600 nM and 16000 nM, respectively.
Turning to `COc1cccc(-c2ccc3[nH]nc(-c4ccccc4)c3c2)c1` [Example 86, 5-(3-Methoxyphenyl)-3-(phenyl)-1H-indazole], the inhibition at 10 µM at CDK2/cyclin A worked out at 45%; at CDK4/cyclin D3 it was 18%.
For the compound `O=[N+]([O-])c1ccc2[nH]nc(-c3ccccc3)c2c1` [Intermediate 11a, 5-Nitro-3-phenyl-1H-indazole], the Ki on CDK2/cyclin A came to 13000 nM. Moreover, on CDK4/cyclin D3 (read-out: CDK4/D % inhibition at 100 μM), the inhibition at 100 µM was 48%.
